# Laboratory results as given in article PMC12336439 (Archiv Der Pharmazie, 2025).
# Values joined by “and” are separate entries in the source; they are usually repeats but may differ in a detail not shown here. Equal values may be shown once. Read-outs that look alike come from different tables or passages of the source.
# Columns and labels:
# USP7asoc = target: T1, USP7asoc (Homo sapiens, UniProt Q93009, C300S/C315S/C334S/C478S/C488S/C510S); parameters: method as in PMID 40165995; conditions: 24 h incubation at 20°C, ratio 1:31.25; spectra reported previously; cited from earlier work
# T1 construct: (208‐560, C300/315/334/448/478/510S); made in house
# [1] = target: T2, USP7cd (USP7 catalytic domain) (Homo sapiens, UniProt Q93009); assay: Ub-AMC enzyme activity assay, IC50 determination; type: biochemical; conditions: 10 nM USP7cd, 500 nM Ub-AMC, 24 h pre-incubation at 20°C
# T2 construct: USP7 catalytic domain (USP7CD) (208‐560); made in house
# Protocol: Therefore, USP7 was incubated for 24 h with ten different compound concentrations, and IC50 values were then obtained with a fluorescent DUB substrate (Ub‐AMC) (Figure 9A–F). The pre‐incubation times were chosen to account for the slow covalent binding kinetics observed in the previous experiments.
# The cleavage activity of USP7cd in the presence or absence of inhibitors was measured using Ubiquitin‐Aminomethylcoumarin (Ub‐AMC) (Enzo Life Sciences GmbH, Lörrach, Germany) as a fluorogenic substrate. The fluorescence was monitored using the CLARIOstar plate reader (BMG Labtech GmbH, Ortenberg, Germany) at 25°C at 360 nm excitation and 460 nm emission wavelengths. […] Each measurement was performed at least twice in duplicate. […] Ub‐AMC was added to a final concentration of 500 nM, and the fluorescence was measured after 1 h. The normalized dose‐response semi‐logarithmic curves were fitted using OriginPro2021 and the four‐parameter logistic function.
# Different concentrations of compounds were pre-incubated with USP7 for 24 h at 20 °C in a rotating shaker in 25 mM Tris pH 8.0, 150mM NaCl, 5 mM TCEP supplemented with 0.2 mg/mL bovine serum albumin (BSA). Fluorescence was measured after 1 h of the addition of Ub-AMC. The dose response semi-logarithmic curves were fitted using OriginPro2021 and the four-parameter logistic function.
# USP7 [2] = target: T3, USP7 (Homo sapiens, UniProt Q93009); parameters: method as in PMID 40165995; conditions: 24 h incubation at 20°C, ratio 1:31.25; spectra reported previously; cited from earlier work
# T3 construct: USP7 catalytic domain (USP7CD) (208‐560); made in house
# [3] = target: T4, USP7asoc (active site only cysteine) (Homo sapiens, UniProt Q93009, C300S/C315S/C334S/C478S/C488S/C510S); assay: Differential scanning fluorimetry (DSF), melting temperature shift of USP7asoc mutant; type: binding; conditions: 8 µM protein, 250 µM compound (1:31.25)
# T4 construct: (208‐560, C300/315/334/448/478/510S); made in house
# Protocol: USP7asoc only retains the catalytic Cys223 while all the other six cysteines are mutated to serine. DSF was selected for initial assessment since it is an efficient and rapid primary screening method readily available to our lab. […] An important consideration when assessing covalent inhibitors is the time dependence of covalent target occupancy and thus potency, which is determined by the reaction kinetics of the covalent binding event. To allow for drawing conclusions on compounds with slower reaction kinetics, incubation times of 30 min, 4 h, and 24 h at 20°C were chosen for the DSF screen with USP7 (Table 1 and Figures 2 and 3). The threshold at which compounds were considered (de‐)stabilizers was defined at 0.5°C. In parallel, the intrinsic reactivity of a set of representative compounds was evaluated in a glutathione reactivity assay. […] The expression and purification of USP7 catalytic domain (USP7CD) (208‐560) and USP7asoc (active site only cysteine) by using a pET24a(+)_HLT_USP7 construct were performed as previously described. […] For the USP7asoc, six of the seven cysteines are mutated to serines (208‐560, C300/315/334/448/478/510S). All utilized protein sequences are depicted in Supporting Information S2: Table S.3.1. The melting temperatures of USP7 and USP7asoc in the presence or absence of fragments were determined by DSF on a Qiagen Rotor‐Q Model‐5‐Plex HRM real‐time PCR instrument (Qiagen, Hilden, Germany). SYPRO Orange (Life Technologies Corporation, Eugene, OR, USA) was used as a fluorescent dye at a final concentration of 5x. The protein concentration was 8 µM, and the final compound concentration was 250 µM, corresponding to a protein‐to‐compound ratio of 1:31.25. All compounds were dissolved in dimethyl sulfoxide (DMSO) and the proteins in Tris buffer (25 mM Tris pH 8.0, 150 mM NaCl, 5 mM TCEP, 5% (v/v) DMSO). All measurements were performed after 30 min, 4 h, and 24 h of incubation and at least in triplicate. DSF experiments were carried out with a constant heating rate of 270°C/h. The temperature was ramped from 28°C to 60°C–70°C with excitation and emission filters set at 470 nm and 610 nm, respectively. The melting temperatures (T m) of USP7 and USP7asoc were determined from the maxima of the first derivatives of the melting curves in OriginPro2020 (OriginLab, Northampton, MA, USA). The ∆T m was calculated by subtraction of the T m of the protein sample with pure DMSO from the T m of the protein sample mixed with compound. Error propagation was used to average multiple runs for a compound. A compound was considered to be a hit if the shift in the ∆T m was at least 0.50°C [55].
# USP7 [4] = target: T3, USP7; assay: Differential scanning fluorimetry (DSF), melting temperature shift of USP7; type: binding; conditions: 8 µM protein, 250 µM compound (1:31.25)
# Excerpt: The influence of the synthesized compounds on the melting temperature (T m) of USP7 and its mutant USP7asoc (active site only cysteine) was investigated by DSF. USP7asoc only retains the catalytic Cys223 while all the other six cysteines are mutated to serine. DSF was selected for initial assessment since it is an efficient and rapid primary screening method readily available to our lab.
# An important consideration when assessing covalent inhibitors is the time dependence of covalent target occupancy and thus potency, which is determined by the reaction kinetics of the covalent binding event. To allow for drawing conclusions on compounds with slower reaction kinetics, incubation times of 30 min, 4 h, and 24 h at 20°C were chosen for the DSF screen with USP7 (Table 1 and Figures 2 and 3). The threshold at which compounds were considered (de‐)stabilizers was defined at 0.5°C. In parallel, the intrinsic reactivity of a set of representative compounds was evaluated in a glutathione reactivity assay. […] Data obtained from the GSH reactivity studies are shown in Supporting Information S2: Table S2.1 and Figures S2.1–2.3.
# The melting temperatures of USP7 and USP7asoc in the presence or absence of fragments were determined by DSF on a Qiagen Rotor‐Q Model‐5‐Plex HRM real‐time PCR instrument (Qiagen, Hilden, Germany). SYPRO Orange (Life Technologies Corporation, Eugene, OR, USA) was used as a fluorescent dye at a final concentration of 5x. The protein concentration was 8 µM, and the final compound concentration was 250 µM, corresponding to a protein‐to‐compound ratio of 1:31.25. All compounds were dissolved in dimethyl sulfoxide (DMSO) and the proteins in Tris buffer (25 mM Tris pH 8.0, 150 mM NaCl, 5 mM TCEP, 5% (v/v) DMSO). All measurements were performed after 30 min, 4 h, and 24 h of incubation and at least in triplicate. DSF experiments were carried out with a constant heating rate of 270°C/h. The temperature was ramped from 28°C to 60°C–70°C with excitation and emission filters set at 470 nm and 610 nm, respectively. The melting temperatures (T m) of USP7 and USP7asoc were determined from the maxima of the first derivatives of the melting curves in OriginPro2020 (OriginLab, Northampton, MA, USA). The ∆T m was calculated by subtraction of the T m of the protein sample with pure DMSO from the T m of the protein sample mixed with compound. Error propagation was used to average multiple runs for a compound. A compound was considered to be a hit if the shift in the ∆T m was at least 0.50°C [55].
# USP7 [5] = target: T3, USP7; parameters: method as in PMID 40165995; conditions: hit from earlier screen of covalent kinase inhibitor library; cited from earlier work
# T2 sequence (Q93009 with tags, fused parts or gaps): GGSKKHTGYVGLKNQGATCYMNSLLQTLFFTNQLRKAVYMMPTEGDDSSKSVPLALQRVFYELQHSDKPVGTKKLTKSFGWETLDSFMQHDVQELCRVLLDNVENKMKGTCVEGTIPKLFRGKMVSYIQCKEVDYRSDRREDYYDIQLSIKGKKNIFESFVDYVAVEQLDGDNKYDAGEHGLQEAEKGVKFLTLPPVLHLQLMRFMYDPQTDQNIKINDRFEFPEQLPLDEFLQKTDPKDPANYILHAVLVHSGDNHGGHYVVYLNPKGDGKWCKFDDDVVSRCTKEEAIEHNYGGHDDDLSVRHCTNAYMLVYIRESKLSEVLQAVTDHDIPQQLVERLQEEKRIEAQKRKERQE
# T3 sequence (Q93009 with tags, fused parts or gaps): as above
# T4 sequence (Q93009 with tags, fused parts or gaps C300S/C315S/C334S/C478S/C488S/C510S): as the sequence (Q93009 with tags, fused parts or gaps) above, with C96S, C111S, C130S, C274S, C284S, C306S counted along it
# T1 sequence (Q93009 with tags, fused parts or gaps C300S/C315S/C334S/C478S/C488S/C510S): as the sequence (Q93009 with tags, fused parts or gaps) above, with C96S, C111S, C130S, C274S, C284S, C306S counted along it
smiles,measurement,setting,value
"Cn1cc(-c2cccc3cnc(Nc4nc(F)ccc4[N+](=O)[O-])cc23)cn1 [7a, N‐(6‐Fluoro‐3‐nitropyridin‐2‐yl)‐5‐(1‐methyl‐1H‐pyrazol‐4‐yl)isoquinolin‐3‐amine]",protein species in deconvoluted mass spectrum of USP7asoc,USP7asoc,single covalent modification as the main peak
same,IC50,[1]; read-out: IC50 USP7cd,43.3 µM and 43 µM
same,IC50,"[1]; supplement table, read-out: Biological Activity (IC50)",48.2 ± 6.89 µM
same,protein species in deconvoluted mass spectrum of USP7,USP7 [2],mono‐arylated protein species as the main peak
same,∆T m ± SD USP7asoc,[3]; 30 min incubation at 20°C,–0.10 ± 0.09 °C
same,∆T m ± SD USP7asoc,[3]; 4 h incubation at 20°C,–0.25 ± 0.09 °C
same,∆T m ± SD USP7,USP7 [4]; 30 min incubation at 20°C,–0.13 ± 0.08 °C
same,∆T m ± SD USP7,USP7 [4]; 4 h incubation at 20°C,–0.23 ± 0.06 °C
same,temperature decrease with USP7 in DSF,USP7 [5],–4 °C
